Key:
KTA-2 cell line = test: PTHrP stimulation test (3H-TdR incorporation); format: cell-based, human; conditions: PTHrP(34-53) 0, 1, 10, 100 ng/mL, trypsin treatment at 24 hours and at 48 hours after addition
Protocol: (§1) Briefly, anaplastic thyroid cell lines TTA-1 (hatched bars), TTA-2 (solid bars), and KTA-2 (unfilled bars) were seeded at 1×10^4 cells per well in a 96-well plate. Cells were incubated for two days in complete medium and then shifted to serum-free medium for day 3. Cells were treated with PTHrP (34-53) at 0, 1, 10, and 100 ng/mL and treated with trypsin 24 (top panel) and 48 (bottom panel) hours later. Cells were labeled with ^3H-TdR for 6 hours (0.25 μCi/well) and incorporation of label was measured by liquid scintillation counting. Measurements were performed in triplicate and average results are presented.
(§2) After treating TTA-1, TTA-2, and KTA-2 with trypsin, the number of viable cells not stained with trypan blue was counted with a hemocytometer. Subsequently, 1×10^4 cells were inoculated on a 96-well multi-plate (Falcon), and then cultured in a CO2 incubator at 37° C. for 2 days. On day 2 after culturing, the culture solution was replaced by a serum-free medium, and then culturing was performed for 1 day. PTHrP(34-53) (Calbiochem) at concentrations of 0 (PTHrP-free), 1, 10 and 100 ng/mL were added, followed by treatment with trypsin 24 and 48 hours later.
(§3) The cells were labeled with ^3H-TdR for 6 hours (0.25 μCi/well), collected, and then incorporation of ^3H-TdR was measured using a liquid scintillation counter. […]

TTA-1 cell line = test: PTHrP stimulation test (3H-TdR incorporation); format: cell-based, human; conditions: PTHrP(34-53) 0, 1, 10, 100 ng/mL, trypsin treatment at 24 hours and at 48 hours after addition
Protocol: as §1, §2, §3

PTHrP(34-53): peptide fragment consisting the sequence of amino acids 34 to 53 of parathyroid hormone related peptide (Calbiochem) (AEIRATSEVSPNSKPSPNTK; listed as Homo sapiens)
cell proliferation (incorporation of 3H-TdR) (KTA-2 cell line): proliferate depending on the concentration of PTHrP
cell proliferation (incorporation of 3H-TdR) (TTA-1 cell line): proliferate depending on the concentration of PTHrP

Source: patent US8029793B2, “Methods for inhibiting cell proliferation” (Chugai Seiyaku Kabushiki Kaisha, priority 2000, dated 2011)
